This note sets out measurements from US20150344485A1, “BICYCLIC PYRIMIDONE COMPOUNDS AS INHIBITORS OF LP-PLA2” (GLAXOSMITHKLINE INTELLECTUAL PROPERTY DEVELOPMENT LIMITED, priority 2013, published 2015).

The target in one assay is T1, Lp-PLA2 in human plasma (Homo sapiens, UniProt Q13093).
T1 construct: from tissue; host or cells: pooled human plasma
T1 sequence (Q13093 22-441): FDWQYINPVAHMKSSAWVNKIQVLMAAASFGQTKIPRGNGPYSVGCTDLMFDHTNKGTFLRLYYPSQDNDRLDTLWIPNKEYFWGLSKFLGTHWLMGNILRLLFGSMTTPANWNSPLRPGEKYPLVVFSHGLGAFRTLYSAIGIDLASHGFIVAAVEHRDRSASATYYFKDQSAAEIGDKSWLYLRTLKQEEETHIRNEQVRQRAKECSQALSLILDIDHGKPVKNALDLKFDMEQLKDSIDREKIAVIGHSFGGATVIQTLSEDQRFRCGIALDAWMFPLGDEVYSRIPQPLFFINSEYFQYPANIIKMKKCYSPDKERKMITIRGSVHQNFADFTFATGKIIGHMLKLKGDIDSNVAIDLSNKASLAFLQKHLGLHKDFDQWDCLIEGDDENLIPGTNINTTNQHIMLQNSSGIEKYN
Kind of assay: Lp-PLA2 human plasma assay (Thio-PAF assay). It counts as biochemical. To be noted: pooled human plasma; read-out: pIC50 values in the thio-PAF assay (converted). The text has this:
The human plasma assay utilizes a thioester analog of PAF (phosphatidylcholine), where hydrolysis yields to the formation of a phospholipid containing a free thiol group. The amount of thiol is quantitated continuously by reacting with CPM (7-diethylamino-3-(4′-maleimidylphenyl)-4-methylcoumarin), a maleimide which increases in fluoresence after Michael addition of thiols. This assay may detect the activity of Lp-PLA2 in human plasma, as determined by specific inhibition by Lp-PLA2 inhibitors.
The thio-PAF assay was run as a quenched 15 μL assay. Compounds source plate was prepared by making 1:3 (by volume) serial dilution of the compounds into pure DMSO on 384-well microplate. 0.01 μL of compounds on compound source plate were transferred to 384 well Greiner 784076 (black) low-volume plates by ECHO liquid dispenser. 8 μL pooled human plasma, which was previously aliquoted and frozen, was added. Plates were centrifuged for 10 sec at 500 rpm. After 30 minutes preincubation, 2 μL of substrate solution comprising 2.5 mM 2-thio-PAF [from ethanol stock], 32 μM CPM [from a DMSO stock] and 3.2 mM NEM (N-ethylmaleimide) [made fresh daily in DMSO] in assay buffer of 50 mM HEPES, pH 7.4, 150 mM NaCl, 1 mM CHAPS was added to 384 well Greiner 784076 (black) low-volume plates by BRAVO liquid handling station. After 2 mins, reaction was quenched with 5 μL of 5% aqueous trifluoroacetic acid (TFA). Plates were covered to protect from light and incubated for 40 min at room temperature. Plates were read at ex: 380/em: 485 using-Envision microplate reader. pIC50 data, curve and QC analysis was conducted by using XLFit module in Excel.

Assay [1] has as its target T2, recombinant human Lp-PLA2 (Homo sapiens, UniProt Q13093).
T2 sequence (Q13093 22-441): T1 sequence (Q13093 22-441)
Kind of assay: Recombinant human Lp-PLA2 assay (rhLp-PLA2, PED6 assay). The assay is classed as biochemical. An excerpt: (1) Recombinant Human Lp-PLA2 Assay (rhLp-PLA2) (Also Referred to as “PED6” Assay)
N-((6-(2,4-dinitrophenyl)amino)-hexanoyl)-2-(4,4-difluoro-5,7-dimethyl-4-bora-3a,4a-diaza-s-indacene-3-pentanoyl)-1-hexadecanoyl-sn-glycero-3-phosphoethanolamine, triethylammonium salt (PED6) is a commercially available fluorescently-labeled phospholipid, which is commercially available from Invitrogene and Molecular Probes. There is a quenching para-nitro phenyl (PNP) group in the sn3 position and a Bodipy fluorescein (FL) group in the sn2 position. Upon cleavage with Lp-PLA2, the Bodipy FL group is liberated and then may result in an increase in fluorescence. Inhibitors of Lp-PLA2 therefore prevent this cleavage and no fluorescent increase is observed.
The PED6 assay was run as an unquenched 10 μL assay. The source plate containing the compounds to be tested was prepared by making 1:3 (by volume) serial dilution of the compounds within DMSO on 384-well microplate. Then, 0.01 μL of the compounds on compound source plate were transferred into 384 well Greiner 784076 (black) plates using ECHO liquid dispenser. 5 μL of recombinant human Lp-PLA2 enzyme (4 nM (or 110 pM) rhLp-PLA2 in assay buffer of 50 mM HEPES, pH 7.4, 150 mM NaCl, 1 mM CHAPS) was added to each well of the plate. Plates were centrifuged for 10 sec at 500 rpm. After 30 minutes preincubation, 5 μL of substrate (4 μM (or 5 μM) PED6 [from 5 mM DMSO stock] in assay buffer of 50 mM HEPES, pH 7.4, 150 mM NaCl, 1 mM CHAPS) was added to 384 well Greiner 784076 (black) plates. Plates were centrifuged for 10 sec at 500 rpm. The plate was covered to protect it from light and incubated for 20 min at room temperature. The plates were read for fluorescence intensity at ex: 480/em: 540 using ViewLux microplate imager for Envision spectrofluroimeters. pIC50 data, curve and QC analysis was conducted by using XL fit module in Excel.

Setting [2] is: read-out: pIC50 values in the recombinant human Lp-PLA2 assay (converted).
Where [3] appears, read: read-out: rhLp-PLA2 (PED6 assay) (pIC50) (converted).

The structures appear in SMILES notation. Where two headings read alike, the source gives them in different places. A value given as a limit tells only on which side of the number the result lay.

Consider `C[C@H]1CCn2c(cc(OCc3cc(F)c(Oc4ccc(C(F)(F)F)nc4)c(F)c3)nc2=O)N1C` [E46, (S)-8-((3,5-difluoro-4-((6-(trifluoromethyl)pyridin-3-yl)oxy)benzyl)oxy)-1,2-dimethyl-3,4-dihydro-1H-pyrimido[1,6-a]pyrimidin-6(2H)-one], for which the IC50 at Lp-PLA2 in human plasma was not above 10 nM; in assay [1] (setting [2]), not above 1 nM; in assay [1] (setting [3]) it was 0.126 nM.
As for `CN1c2cc(OCc3cc(F)c(F)c(F)c3)nc(=O)n2CCC1(C)C` [E54, 1,2,2-trimethyl-8-((3,4,5-trifluorobenzyl)oxy)-3,4-dihydro-1H-pyrimido[1,6-a]pyrimidin-6(2H)-one], the IC50 on Lp-PLA2 in human plasma is not above 100 nM; in assay [1] (setting [2]), not above 1 nM.
`CCN1c2cc(OCc3cc(F)c(F)c(F)c3)nc(=O)n2CC[C@@H]1C` [E56, (S)-1-ethyl-2-methyl-8-((3,4,5-trifluorobenzyl)oxy)-3,4-dihydro-1H-pyrimido[1,6-a]pyrimidin-6(2H)-one]: the IC50 is not above 10 nM on Lp-PLA2 in human plasma, not above 1 nM in assay [1] (setting [2]) and 0.398 nM in assay [1] (setting [3]).
For the compound `C[C@H]1CCn2c(cc(OCc3cc(F)c(Oc4cccc(C(F)(F)F)c4)c(F)c3)nc2=O)N1C` [E62, (S)-8-((3,5-difluoro-4-(3-(trifluoromethyl)phenoxy)benzyl)oxy)-1,2-dimethyl-3,4-dihydro-1H-pyrimido[1,6-a]pyrimidin-6(2H)-one], the IC50 at Lp-PLA2 in human plasma was not above 10 nM; in assay [1] (setting [3]) it was 3.98 nM.
For the compound `[2H]C([2H])(Oc1cc2n(c(=O)n1)CCC(C)(C)N2C)c1cc(F)c(F)cc1F` [E71, 8-(dideutero(2,4,5-trifluorophenyl)methoxy)-1,2,2-trimethyl-3,4-dihydro-1H-pyrimido[1,6-a]pyrimidin-6(2H)-one], the values for the IC50 (at Lp-PLA2 in human plasma; in assay [1] (setting [2])) were not above 100 nM and not above 1 nM, respectively.
For `[2H]C([2H])(Oc1cc2n(c(=O)n1)CCC(C)(C)N2C)c1cccc(F)c1F` [E73, 8-((2,3-difluorophenyl)dideuteromethoxy)-1,2,2-trimethyl-3,4-dihydro-1H-pyrimido[1,6-a]pyrimidin-6(2H)-one], the IC50 at Lp-PLA2 in human plasma is not above 100 nM; in assay [1] (setting [2]), not above 1 nM.
In the same order, the values of `[2H]C([2H])(Oc1cc2n(c(=O)n1)CCC(C)(C)N2C)c1cc(F)cc(F)c1` [E75, 8-((3,5-difluorophenyl)dideuteromethoxy)-1,2,2-trimethyl-3,4-dihydro-1H-pyrimido[1,6-a]pyrimidin-6(2H)-one] are not above 100 nM and not above 1 nM.
For the compound `C[C@@H]1CCn2c(cc(OCc3ccc(Oc4ccc(Cl)c(F)c4)c(C#N)c3)nc2=O)N1C` [E76, (R)-2-(4-chloro-3-fluorophenoxy)-5-(((1,2-dimethyl-6-oxo-2,3,4,6-tetrahydro-1H-pyrimido[1,6-a]pyrimidin-8-yl)oxy)methyl)benzonitrile], the IC50 on Lp-PLA2 in human plasma was not above 100 nM; in assay [1] (setting [2]) it was not above 1 nM.
Take `C[C@@H]1CCn2c(cc(OCc3cc(F)c(Oc4cccc(C(F)(F)F)c4)c(F)c3)nc2=O)N1C` [E77, (R)-8-((3,5-difluoro-4-(3-(trifluoromethyl)phenoxy)benzyl)oxy)-1,2-dimethyl-3,4-dihydro-1H-pyrimido[1,6-a]pyrimidin-6(2H)-one]: the IC50 is not above 10 nM at Lp-PLA2 in human plasma and not above 1 nM in assay [1] (setting [2]).
For `C[C@@H]1CCn2c(cc(OCc3ccc(Oc4ccc(C(F)(F)F)cc4)c(C#N)c3)nc2=O)N1C` [E78], the IC50 was not above 100 nM on Lp-PLA2 in human plasma and not above 1 nM in assay [1] (setting [2]).
Take `C[C@@H]1CCn2c(cc(OCc3ccc(Oc4ccc(F)c(Cl)c4)c(C#N)c3)nc2=O)N1C` [E79, (R)-2-(3-chloro-4-fluorophenoxy)-5-(((1,2-dimethyl-6-oxo-2,3,4,6-tetrahydro-1H-pyrimido[1,6-a]pyrimidin-8-yl)oxy)methyl)benzonitrile]: the values for the IC50 (at Lp-PLA2 in human plasma; in assay [1] (setting [2])) were not above 100 nM and not above 1 nM, respectively.
On to `C[C@@H]1CCn2c(cc(OCc3ccc(Oc4ccc(F)c(F)c4)c(F)c3)nc2=O)N1C` [E80, (R)-8-((4-(3,4-difluorophenoxy)-3-fluorobenzyl)oxy)-1,2-dimethyl-3,4-dihydro-1H-pyrimido[1,6-a]pyrimidin-6(2H)-one], for which the IC50 is not above 100 nM at Lp-PLA2 in human plasma and not above 1 nM in assay [1] (setting [2]).
